We go through two molecules from US20250325655A1, “VACCINE ADJUVANT, AND PREPARATION METHOD THEREFOR AND USE THEREOF” (CHENGDU MAXVAX BIOTECHNOLOGY LLC, priority 2021, published 2025).

Series [1] can be described thus: Toxicology studies of the present product. Particulars: poly (I:C) adsorbed onto the mixed liposomes. The source says:
In order to maintain stability of physical properties of products, the mixed liposomes containing the cationic liposomes and the neutral liposomes (consisting of […]) were chosen in the present disclosure to adsorb poly (I:C). Poly (I:C) adsorbed by the intramuscular administered mixed liposomes could be passively or actively delivered to antigen presenting cells (APCs), to limit its interaction with non-phagocytic cells, and regulate systemic secretion of cytokines generated thereby.

The conditions of series [2]: cancer patients, QS-21 dose 100~200 μg, cited from earlier work.

For “polyinosinic: polycytidylic acid [poly (I:C)]”, the safety result in series [1] is on record as “can effectively improve its safety”. On to `CCC(C)C(CC(O)CC(=O)O[C@@H]1[C@H](O)[C@H](C)O[C@H](OC(=O)[C@@H]2CC(C)(C)C[C@@H]3C4=CCC5[C@@]6(C)CC[C@H](O[C@@H]7O[C@H](C(=O)O)[C@@H](O)[C@H](O[C@H]8OC[C@@H](O)[C@H](O)[C@H]8O)[C@H]7O[C@@H]7O[C@H](CO)[C@H](O)[C@H](O)[C@H]7O)[C@@](C)(C=O)[C@@H]6CC[C@@]5(C)[C@]4(C)C[C@@H](O)C32)[C@H]1O[C@@H]1O[C@@H](C)[C@H](O[C@H]2OC[C@@H](O)[C@H](O[C@H]3OC[C@](O)(CO)[C@H]3O)[C@H]2O)[C@@H](O)[C@H]1O)OC(=O)CC(O)CC(O[C@@H]1O[C@@H](CO)[C@H](O)[C@H]1O)C(C)CC` (stereo partly drawn) [QS-21, Quillaja saponaria saponin 21], for which the “erythema and induration at the injection site” value in series [2] (most patients) is 2-10 cm. Besides, the dose-limiting toxicity result in series [2] is “No dose-limiting toxicity”.
